# Test results published in patent publication US10233184B2, “7-substituted sulfonimidoylpurinone compounds and derivatives for the treatment and prophylaxis of virus infection” (Hoffmann-La Roche Inc., priority 2016, dated 2019).
# How the values were obtained:
# human TLR7 = molecular target: T1, human TLR7 (Homo sapiens, UniProt Q9NYK1); experiment: HEK293-Blue-hTLR-7 cells assay (SEAP reporter); format: cell-based; settings: for EC50: HEK293-Blue-hTLR-7 cells, SEAP reporter, 20 hrs, prodrug, read-out: HEK293-hTLR-7 EC50 (Prodrug); for Ratio (EC50(prodrug)/EC50(active form)): EC50 of prodrug over EC50 of corresponding active form
# T1 sequence (Q9NYK1 27-1049): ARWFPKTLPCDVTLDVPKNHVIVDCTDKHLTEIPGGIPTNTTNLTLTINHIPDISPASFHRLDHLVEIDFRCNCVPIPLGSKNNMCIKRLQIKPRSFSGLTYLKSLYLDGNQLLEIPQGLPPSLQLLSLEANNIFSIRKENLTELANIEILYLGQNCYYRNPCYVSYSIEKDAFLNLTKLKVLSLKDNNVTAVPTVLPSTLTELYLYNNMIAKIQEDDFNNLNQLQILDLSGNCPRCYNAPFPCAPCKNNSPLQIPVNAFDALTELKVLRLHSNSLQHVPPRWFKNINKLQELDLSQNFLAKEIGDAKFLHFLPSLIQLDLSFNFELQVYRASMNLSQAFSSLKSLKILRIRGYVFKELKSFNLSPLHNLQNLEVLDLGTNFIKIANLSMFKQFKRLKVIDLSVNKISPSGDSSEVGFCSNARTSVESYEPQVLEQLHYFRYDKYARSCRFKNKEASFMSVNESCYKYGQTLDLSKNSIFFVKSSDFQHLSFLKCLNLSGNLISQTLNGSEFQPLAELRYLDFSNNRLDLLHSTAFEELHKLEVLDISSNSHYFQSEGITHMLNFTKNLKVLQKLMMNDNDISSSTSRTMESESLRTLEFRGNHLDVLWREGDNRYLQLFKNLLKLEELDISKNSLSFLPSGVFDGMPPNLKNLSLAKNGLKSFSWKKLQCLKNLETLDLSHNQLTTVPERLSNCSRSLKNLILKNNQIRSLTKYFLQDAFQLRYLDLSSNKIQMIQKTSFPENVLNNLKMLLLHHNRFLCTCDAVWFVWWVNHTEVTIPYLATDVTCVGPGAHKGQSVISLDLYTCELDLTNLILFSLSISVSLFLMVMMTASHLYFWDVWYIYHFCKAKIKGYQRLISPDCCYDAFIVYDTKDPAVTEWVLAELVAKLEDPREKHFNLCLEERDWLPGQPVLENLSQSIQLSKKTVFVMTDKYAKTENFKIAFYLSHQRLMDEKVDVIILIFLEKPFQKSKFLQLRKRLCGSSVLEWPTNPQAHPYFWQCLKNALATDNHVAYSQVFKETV
# Description: HEK293-Blue-hTLR-7 Cells Assay:
# A stable HEK293-Blue-hTLR-7 cell line was purchased from InvivoGen (Cat.#: hkb-htlr7, San Diego, Calif., USA). These cells were designed for studying the stimulation of human TLR7 by monitoring the activation of NF-κB. A SEAP (secreted embryonic alkaline phosphatase) reporter gene was placed under the control of the IFN-β minimal promoter fused to five NF-κB and AP-1-binding sites. The SEAP was induced by activating NF-κB and AP-1 via stimulating HEK-Blue hTLR7 cells with TLR7 ligands. Therefore the reporter expression was regulated by the NF-κB promoter upon stimulation of human TLR7 for 20 hrs. The cell culture supernatant SEAP reporter activity was determined using QUANTI-Blue™ kit (Cat.#: rep-qbl, Invivogen, San Diego, Calif., USA) at a wavelength of 640 nm, a detection medium that turns purple or blue in the presence of alkaline phosphatase.
# HEK293-Blue-hTLR7 cells were incubated at a density of 250,000˜450,000 cells/mL in a volume of 180 μL in a 96-well plate in Dulbecco's Modified Eagle's medium (DMEM) containing 4.5 g/L glucose, 50 U/mL penicillin, […], […], 2 mM L-glutamine, 10% (V/V) heat-inactivated fetal bovine serum for 24 hrs. Then the HEK293-Blue-hTLR-7 cells were incubated with addition of 20 μL test compound in a serial dilution in the presence of final DMSO at 1% and perform incubation under 37° C. in a CO2 incubator for 20 hrs. Then 20 μL of the supernatant from each well was incubated with 180 μL Quanti-blue substrate solution at 37° C. for 2 hrs and the absorbance was read at 620˜655 nm using a spectrophotometer. The signalling pathway that TLR7 activation leads to downstream NF-κB activation has been widely accepted, and therefore similar reporter assay was also widely used for evaluating TLR7 agonist (Tsuneyasu Kaisho and Takashi Tanaka, Trends in Immunology, Volume 29, Issue 7, July 2008, […]; Hiroaki Hemmi et al, Nature Immunology 3, 196-200 (2002)).
# The Compounds and Examples of the present invention were tested in HEK293-hTLR-7 assay for their TLR7 agonism activity as described herein and results are listed in Table 1. […] The calculated ratio of EC50(prodrug)/EC50(active form) were within the range from 32 to about 7600.
# LYSA solubility study = format: physicochemical; settings: for solubility thermodynamic: phosphate buffer, pH 6.5, aqueous buffer, thermodynamic from solid, 0.05M phosphate buffer pH 6.5, read-out: LYSA of Prodrugs; for LYSA of Prodrugs: aqueous solubility, 0.05M phosphate buffer pH 6.5
# Protocol: LYSA study is used to determine the aqueous solubility of tested compounds. Samples were prepared in duplicate from 10 mM DMSO stock solution. After evaporation of DMSO with a centrifugal vacuum evaporator, the compounds were dissolved in 0.05M phosphate buffer (pH 6.5), stirred for one hour and shaken for two hours. After one night, the solutions were filtered using a microtiter filter plate. Then the filtrate and its 1/10 dilution were analyzed by HPLC-UV. […] The results were in μg/mL. In case the percentage of sample measured in solution after evaporation divided by the calculated maximum of sample amount was bigger than 80%, the solubility was reported as bigger than this value.
# [1] = Single dose PK study in male Wister-Han rats; format: in vivo; settings: male, Wister-Han, rat, plasma, po, 5 mg/kg, 5 mg/kg oral dosing of active form
# Protocol: The single dose PK in Male Wister-Han Rats was performed to assess pharmacokinetic properties of tested compounds. Two groups of animals were dosed via Gavage (POE) of the respective compound. […] Blood samples were placed into tubes containing EDTA-K2 anticoagulant and centrifuged at 5000 rpm for 6 min at 4° C. to separate plasma from the samples. After centrifugation, the resulting plasma was transferred to clean tubes for bioanalysis of both prodrug and active form on LC/MS/MS. In the groups that prodrug were dosed, the concentration of prodrugs in the plasma samples was under the detection limit. The “tested compound” in Table 8 was used as the internal standard for testing the metabolite (active form) of “dose compound” in vivo. The pharmacokinetic parameters were calculated using non-compartmental module of WinNonlin® Professional 6.2. The peak concentration (Cmax) was recorded directly from experimental observations. The area under the plasma concentration-time curve (AUC0-t) was calculated using the linear trapezoidal rule up to the last detectable concentration. Cmax and AUC0-last are two critical PK parameters related to the in vivo efficacy of the tested compound. Compounds with higher Cmax and AUC0-last will lead to the better in vivo efficacy.
SMILES,EC50 (human TLR7) [µM],solubility thermodynamic (LYSA solubility study) [µg/mL],Ratio (EC50(prodrug)/EC50(active form)) (human TLR7),also measured
"CCCN(C)C(=O)n1c(=O)n(Cc2ccc(F)cc2)c2nc(S(=N)(=O)CC)nc(N)c21 (single isomer, unassigned) [Example 45-A]",153,> 560,–,–
"CCCS(=N)(=O)c1nc(N)c2c(n1)n(Cc1ccccc1)c(=O)n2C(=O)N(C)CCN(C)C(=O)OC(C)(C)C (stereo not drawn) [Example 27, tert-Butyl N-[2-[[6-amino-9-benzyl-8-oxo-2-(propylsulfonimidoyl)purine-7-carbonyl]-methyl-amino]ethyl]-N-methyl-carbamate]",31.7,> 380,–,–
"CCCN(C)C(=O)n1c(=O)n(Cc2ccc(Br)cc2)c2nc([S@@](=N)(=O)CC)nc(N)c21 (single isomer, unassigned) [Example 47-B]",13.1,128,–,–
"CCCS(=N)(=O)c1nc(N)c2c(n1)n(Cc1ccccc1)c(=O)n2C(=O)N1CCN(C)CC1 (stereo not drawn) [Example 11, 6-Amino-9-benzyl-7-(4-methylpiperazine-1-carbonyl)-2-(propylsulfonimidoyl)purin-8-one]",5.6,> 618,86.2,–
"CCCS(=N)(=O)c1nc(N)c2c(n1)n(Cc1ccccc1)c(=O)n2C(=O)N(C)CCOC (stereo not drawn) [Example 2, 6-Amino-9-benzyl-N-(2-methoxyethyl)-N-methyl-8-oxo-2-(propylsulfonimidoyl)purine-7-carboxamide]",32,615,372.1,–
"CCCS(=N)(=O)c1nc(N)c2c(n1)n(Cc1ccccc1)c(=O)n2C(=O)N(C)CCOC(=O)N(CC)CC (stereo not drawn) [Example 32, 2-[[6-Amino-9-benzyl-8-oxo-2-(propylsulfonimidoyl)purine-7-carbonyl]-methyl-amino]ethyl N,N-diethylcarbamate]",22.5,125,346.2,–
"CCCS(=N)(=O)c1nc(N)c2c(n1)n(Cc1ccccc1)c(=O)n2C(=O)N(C)CCN(C)C(=O)OCC (stereo not drawn) [Example 28, Ethyl N-[2-[[6-amino-9-benzyl-8-oxo-2-(propylsulfonimidoyl)purine-7-carbonyl]-methyl-amino]ethyl]-N-methyl-carbamate]",6.9,695,106.2,–
"CCCS(=N)(=O)c1nc(N)c2c(n1)n(Cc1ccccc1)c(=O)n2C(=O)N(C)CCOC (single isomer, unassigned) [Example 2-B]",4.4,–,65.7,LYSA of Prodrugs (LYSA solubility study): >590 µg/mL
"CCN(C)C(=O)n1c(=O)n(Cc2ccc(Cl)cc2)c2nc([S@@](=N)(=O)CC)nc(N)c21 (stereo in doubt) [Example 42-B, 6-Amino-9-[(4-chlorophenyl)methyl]-N-ethyl-2-[S(R)-ethylsulfonimidoyl]-N-methyl-8-oxo-purine-7-carboxamide]",49.2,–,578.8,LYSA of Prodrugs (LYSA solubility study): 335 µg/mL
"CCCS(=N)(=O)c1nc(N)c2c(n1)n(Cc1ccccc1)c(=O)n2C(=O)N(C)CCN(C)C(C)=O (stereo not drawn) [Example 25, N-[2-[Acetyl(methyl)amino]ethyl]-6-amino-9-benzyl-N-methyl-8-oxo-2-(propylsulfonimidoyl)purine-7-carboxamide]",24.2,> 670,372.3,–
"CCCN(C)C(=O)n1c(=O)n(Cc2ccc(C)cc2)c2nc([S@@](=N)(=O)CCC)nc(N)c21 (stereo in doubt) [Example 36-B, 6-amino-N-methyl-8-oxo-N-propyl-2[S(R)-propylsulfonimidoyl]-9-(p-tolylmethyl)purine-7-carboxamide]",–,–,–,LYSA of Prodrugs (LYSA solubility study): 209 µg/mL
"CCCN(C)C(=O)n1c(=O)n(Cc2ccc(F)cc2)c2nc(S(=N)(=O)CC)nc(N)c21 (stereo not drawn) [Example 45, 6-amino-2-(ethylsulfonimidoyl)-9-[(4-fluorophenyl)methyl]-N-methyl-8-oxo-N-propyl-purine-7-carboxamide]",–,172,–,–
"CCS(=O)(=O)c1nc(N)c2[nH]c(=O)n(Cc3ccc(Cl)cc3)c2n1 [Example S-2, reference compound]",–,–,–,AUC(0-t) [1]: 0.748 µM·h; Cmax [1]: 52.7 nM; concentration at 0.25 h ([1]; 0.25 h): 9.49 nM; concentration at 0.5 h ([1]; 0.5 h): 16.7 nM; concentration at 1 h ([1]; 1 h): 19.3 nM; concentration at 2 h ([1]; 2 h): 24.9 nM; concentration at 4 h ([1]; 4 h): 47.5 nM; concentration at 8 h ([1]; 8 h): 52.7 nM; concentration at 24 h ([1]; 24 h): 4.9 nM
"CCCS(=N)(=O)c1nc(N)c2c(n1)n(Cc1ccccc1)c(=O)n2C(=O)N(C)[C@@H](C)C(=O)OCC (stereo partly drawn) [Example 17, Ethyl(2S)-2-[[6-amino-9-benzyl-8-oxo-2-(propylsulfonimidoyl)purine-7-carbonyl]-methyl-amino]propanoate]",–,190,–,–
